Here are results for 12 compounds from ChEMBL document CHEMBL5380810, “Scaffold Hybrid of the Natural Product Tanshinone I with Piperidine for the Discovery of a Potent NLRP3 Inflammasome Inhibitor” (J Med Chem, 2023).

The subject of series [1] is Peritoneal macrophage. The series is described as follows: Cytotoxicity against mouse peritoneal macrophages at 4 uM incubated for 3.5 hrs by MTT assay. The series is classed as toxicity, cell-based.
Series [2] deals with Peritoneal macrophage. The series is described as follows: Antiinflammatory activity against LPS-stimulated mouse peritoneal macrophage assessed as TNF-alpha level at 2 uM treated for 3 hrs followed by ATP addition measured after 30 mins by ELISA method relative to control. The series is classed as functional. Particulars: time 3.5 hrs.
The subject of series [3] is Peritoneal macrophage. The series is described as follows: Antiinflammatory activity against LPS-stimulated mouse peritoneal macrophage assessed as IL-1beta level at 2 uM treated for 3 hrs followed by ATP addition measured after 30 mins by ELISA method relative to control. The class given is functional. Particulars: time 3.5 hrs.
A short description of series [4]: Aqueous solubility of compound incubated for 24 hrs by HPLC analysis. The series is classed as physicochemical. Conditions: buffer.
Series [5] has as its system Peritoneal macrophage. As to the kind of experiment: Antiinflammatory activity against LPS-stimulated mouse peritoneal macrophage assessed as TNF-alpha level at 2 uM treated for 3 hrs followed by ATP addition measured after 30 mins by ELISA method. The series is classed as functional, cell-based. Particulars: time 3.5 hrs.
For series [6], the system named is Peritoneal macrophage. As to the kind of experiment: Antiinflammatory activity against LPS-stimulated mouse peritoneal macrophage assessed as IL-6 level at 2 uM treated for 3 hrs followed by ATP addition measured after 30 mins by ELISA method. The class given is functional, cell-based. Conditions: time 3.5 hrs.
The subject of series [7] is Peritoneal macrophage. The series is described as follows: Antiinflammatory activity against LPS-stimulated mouse peritoneal macrophage assessed as inhibition of IL-1beta secretion treated for 3 hrs followed by ATP addition measured after 30 mins by ELISA method. The series is classed as functional, cell-based.
Series [8] can be described thus: Metabolic stability in human liver microsomes assessed as half life at 20 uM measured upto 120 mins in presence of NADPH by LC-MS/MS analysis. The series is classed as ADME, Microsome.
A short description of series [9]: Metabolic stability in mouse liver microsomes assessed as half life at 20 uM measured upto 120 mins in presence of NADPH by LC-MS/MS analysis. The series is classed as ADME, Microsome.
The nature of series [10]: Metabolic stability in human liver microsomes assessed as intrinsic clearance at 20 uM measured upto 120 mins in presence of NADPH by LC-MS/MS analysis. Particulars: read-out: CLH. The series is classed as ADME, Microsome.
Series [11] can be described thus: Metabolic stability in mouse liver microsomes assessed as intrinsic clearance at 20 uM measured upto 120 mins in presence of NADPH by LC-MS/MS analysis. The class given is ADME, Microsome. Conditions: read-out: CLH.
The test system of series [12] is Peritoneal macrophage. As to the kind of experiment: Antiinflammatory activity against LPS-stimulated mouse peritoneal macrophage assessed as IL-6 level at 2 uM treated for 3 hrs followed by ATP addition measured after 30 mins by ELISA method relative to control. The class given is functional. Conditions: time 3.5 hrs.

In brackets after ≈: the same amount, converted by molar mass. Activity calls are given as the source filed them. The calls are words filed in the database; no cut-off is given here.

`Cc1cccc2c3c(ccc12)-c1oc2c(c1C(=O)C3=O)CCN(CCO)C2.Cl`: the figures for the Activity result in the series on Peritoneal macrophage [1], in the series with Peritoneal macrophage [2] and with Peritoneal macrophage [3] were “Non-Toxic”, 22% and 99%, respectively. The compound also registered a solubility in series [4] of 2.45 µg/mL.

With `Cc1cccc2c3c(ccc12)-c1oc2c(c1C(=O)C3=O)CCN(CCN1CCCC1)C2`, the Activity entry with Peritoneal macrophage [1] is “Non-Toxic”; with Peritoneal macrophage [3] it was 73%. In addition, the outcome with Peritoneal macrophage [5] and in the series with Peritoneal macrophage [6] was inactive.

On to `Cc1cccc2c3c(ccc12)-c1oc2c(c1C(=O)C3=O)CCN(CCN1CCOCC1)C2`, for which the Activity entry in the series on Peritoneal macrophage [1] is listed as “Non-Toxic”; in the series with Peritoneal macrophage [2] it was 26%; with Peritoneal macrophage [3] it was 99%. The result in the series on Peritoneal macrophage [6] was inactive. Moreover, the IC50 with Peritoneal macrophage [7] was determined as 273 nM.

With `Cc1coc2c1C(=O)C(=O)c1c-2ccc2c(C)cccc12` [TANSHINONE I], the results for the Activity result with Peritoneal macrophage [1], with Peritoneal macrophage [2] and with Peritoneal macrophage [3] were “Non-Toxic”, 55% and 69%, respectively. The result in the series with Peritoneal macrophage [6] was inactive. Also, the values for the half-life at 20 µM in [8] and in series [9] were 0.0795 h and 0.352 h, respectively. Moreover, the microsomal CLint at 20 µM in series [10] worked out at 290 µL/min/mg; in [11], 65.6 µL/min/mg.

Take `Cc1cccc2c3c(ccc12)-c1oc2c(c1C(=O)C3=O)CCN([C@H](CO)CCCO)C2.Cl`: the Activity result with Peritoneal macrophage [1] is recorded as “Non-Toxic”; in the series with Peritoneal macrophage [2], 16%; in the series on Peritoneal macrophage [12] it was 6%; in the series on Peritoneal macrophage [3], 96%. The compound further gave a solubility in series [4] of 6.34 µg/mL.

Regarding `Cc1cccc2c3c(ccc12)-c1oc2c(c1C(=O)C3=O)CCN([C@H](CO)CCCO)C2`, the Activity entry with Peritoneal macrophage [1] is “Non-Toxic”; with Peritoneal macrophage [2], 41%; in the series with Peritoneal macrophage [12] it was 10%; with Peritoneal macrophage [3], 99%. Besides, the IC50 with Peritoneal macrophage [7] came out at 65 nM. The solubility in series [4] was found to be 0.45 µg/mL (≈ 1.07 µM). Besides, the values for the half-life at 20 µM in [8] and in series [9] were 3.73 h and 6.08 h, respectively. Moreover, the microsomal CLint at 20 µM in series [10] worked out at 6.2 µL/min/mg; in series [11] it was 3.8 µL/min/mg.

As to `CCN1CCc2c(oc3c2C(=O)C(=O)c2c-3ccc3c(C)cccc23)C1`, the Activity result in the series on Peritoneal macrophage [1] was “Non-Toxic”; in the series on Peritoneal macrophage [3], 67%. Besides, the outcome with Peritoneal macrophage [5] and in the series with Peritoneal macrophage [6] was inactive.

As for `Cc1cccc2c3c(ccc12)-c1oc2c(c1C(=O)C3=O)CCN(CCO)C2`, the Activity entry in the series with Peritoneal macrophage [1] is listed as “Non-Toxic”; in the series on Peritoneal macrophage [2] it was 40%; in the series with Peritoneal macrophage [12], 7%; with Peritoneal macrophage [3], 96%. Also, in the series with Peritoneal macrophage [7], the IC50 was determined as 114 nM. For the same compound, the solubility in series [4] is 0.34 µg/mL (≈ 0.941 µM). The half-life at 20 µM in series [8] came to 11.6 h; in series [9] it was 3.03 h. Besides, the microsomal CLint at 20 µM amounted to 2 µL/min/mg in series [10] and 7.64 µL/min/mg in [11].

For `Cc1cccc2c3c(ccc12)-c1oc2c(c1C(=O)C3=O)CCN(CC(=O)N1CCOCC1)C2`, the Activity result in the series on Peritoneal macrophage [1] is on record as “Non-Toxic”; with Peritoneal macrophage [2], 36%; with Peritoneal macrophage [12], 24%; with Peritoneal macrophage [3], 96%. Further, in the series with Peritoneal macrophage [7], the IC50 stood at 368 nM.

With `Cc1cccc2c3c(ccc12)-c1oc2c(c1C(=O)C3=O)CCN([C@@H](C)C(=O)N1CCOCC1)C2`, the results for the Activity result in the series on Peritoneal macrophage [1], in the series with Peritoneal macrophage [2] and in the series on Peritoneal macrophage [3] were “Non-Toxic”, 52% and 98%, respectively. For the same compound, the result in the series with Peritoneal macrophage [6] was inactive. Besides, the IC50 with Peritoneal macrophage [7] amounted to 2920 nM.

As for `Cc1cccc2c3c(ccc12)-c1oc2c(c1C(=O)C3=O)CCN(CCCN1CCOCC1)C2.Cl`, the Activity entry in the series on Peritoneal macrophage [1] was “Non-Toxic”; in the series with Peritoneal macrophage [2], 24%; in the series on Peritoneal macrophage [12] it was 12%; in the series on Peritoneal macrophage [3] it was 91%. The same compound registered a solubility in series [4] of 11.89 µg/mL.

As for `Cc1cccc2c3c(ccc12)-c1oc2c(c1C(=O)C3=O)CCN(CCN1CCCCC1)C2`, the Activity entry is listed as “Non-Toxic” in the series with Peritoneal macrophage [1] and 41% in the series with Peritoneal macrophage [3]. Besides, the result in the series with Peritoneal macrophage [5] and in the series on Peritoneal macrophage [6] was inactive.
